Experimental data taken from patent US7253202B2, “Substituted benzodioxepines” (Merck Patent GmbH, priority 2002, dated 2007).

Experiments:
[1] = target: T1, 5HT1A receptor (Rattus norvegicus, UniProt P19327); test: 5-HT1A (serotonin) binding test; settings: binding to the 5HT1A receptor; read-out: 5HT1A (IC50 in nmol/l)
T1 construct: from tissue; host or cells: rat brain (hippocampal) membranes
T1 sequence (P19327 1-422): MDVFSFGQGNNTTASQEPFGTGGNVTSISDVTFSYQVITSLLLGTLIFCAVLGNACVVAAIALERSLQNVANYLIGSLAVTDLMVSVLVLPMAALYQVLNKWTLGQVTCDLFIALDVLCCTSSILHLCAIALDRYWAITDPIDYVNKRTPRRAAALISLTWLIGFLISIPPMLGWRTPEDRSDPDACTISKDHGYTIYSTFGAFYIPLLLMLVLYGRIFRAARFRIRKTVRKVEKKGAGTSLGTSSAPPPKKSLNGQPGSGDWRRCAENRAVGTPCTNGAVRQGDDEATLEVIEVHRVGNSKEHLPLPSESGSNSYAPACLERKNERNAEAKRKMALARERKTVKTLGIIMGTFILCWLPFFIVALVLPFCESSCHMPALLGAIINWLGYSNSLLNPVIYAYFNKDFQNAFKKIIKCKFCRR
Experimental: Binding properties of the compounds of the formula I can be determined, for example, by the 5-HT1A (serotonin) binding test (Matzen et al., J. Med. Chem., 43 (2000), 1149-1157, in particular page 1156 with reference to Eur. J. Pharmacol.: 140 (1987), 143-155).
The binding properties to the 5HT1A receptor was determined with the aid of the 5-HT1A (serotonin) binding test (Matzen et al., J. Med. Chem., 43 (2000), 1149-1157, in particular page 1156 with reference to Eur. J. Pharmacol.: 140 (1987), 143-155).

[2] = target: T2, serotonin reuptake (Rattus norvegicus, UniProt P31652); test: Serotonin reuptake inhibition by synaptosomal uptake inhibition (Wong et al.); type: biochemical; settings: read-out: SSRI (IC50 in nmol/l)
T2 construct: from tissue
Excerpt: For ex-vivo detection of serotonin reuptake inhibition, use can be made, for example, of synaptosomal uptake inhibition (Wong et al., Neuropsychopharmacol. 8 (1993), 23-33) and p-chloroamphetamine antagonism (Fuller et al., J. Pharmacol. Exp. Ther. 212 (1980), 115-119).
The serotonin reuptake inhibition was investigated with the aid of synaptosomal uptake inhibition by the method of Wong et al. (Neuropsycho-pharmacol. 8 (1993), 23-33).

[3] = target: 5-HT4 receptor (UniProt O70528); test: 5-HT4 receptor binding test according to Grossman et al.; settings: binding to the 5-HT4 receptor; read-out: 5HT4 (IC50 in nmol/l)
Excerpt: For determination of the binding properties of the compounds of the formula I to the 5-HT4 receptor, use can be made of the test according to Grossman et al. (Grossman et al., Br. J. Pharmacol. 109, (1993), 618-24).
In order to determine the binding properties to the 5-HT4 receptor, use was made of the test in accordance with Grossman et al. (Grossman et al., Br. J. Pharmacol. 109, (1993), 618-24).

T2 sequence (P31652 whole entry): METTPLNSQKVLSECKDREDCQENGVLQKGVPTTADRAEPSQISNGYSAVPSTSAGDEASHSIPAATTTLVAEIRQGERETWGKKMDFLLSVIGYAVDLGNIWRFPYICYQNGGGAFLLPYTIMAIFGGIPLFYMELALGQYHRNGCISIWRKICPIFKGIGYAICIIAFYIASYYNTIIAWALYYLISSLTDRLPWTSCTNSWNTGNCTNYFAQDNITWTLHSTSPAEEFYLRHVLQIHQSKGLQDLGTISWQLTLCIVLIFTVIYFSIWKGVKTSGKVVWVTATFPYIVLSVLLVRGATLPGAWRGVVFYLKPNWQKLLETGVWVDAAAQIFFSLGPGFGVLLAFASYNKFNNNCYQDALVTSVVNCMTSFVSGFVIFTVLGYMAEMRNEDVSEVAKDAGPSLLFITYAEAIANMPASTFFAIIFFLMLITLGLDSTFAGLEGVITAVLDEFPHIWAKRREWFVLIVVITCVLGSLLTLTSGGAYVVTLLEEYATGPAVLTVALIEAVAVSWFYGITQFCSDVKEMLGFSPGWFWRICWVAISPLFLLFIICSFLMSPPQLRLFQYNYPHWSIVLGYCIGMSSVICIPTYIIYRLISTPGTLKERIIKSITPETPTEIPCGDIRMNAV

Structure (SMILES)	melting point [°C]	IC50 [1] [nmol/L]	IC50 [2] [nmol/L]	IC50 [3] [nmol/L]
N#Cc1ccc2[nH]cc(CCCCNCC3CCOc4ccccc4O3)c2c1 (stereo not shown) (hydrate or solvate) [EMD 87322]	78			
N#Cc1ccc2[nH]cc(CCCCNC3COc4ccccc4OC3)c2c1 [EMD 76066, N-(3,4-dihydro-2H-1,5-benzodioxepin-3-yl)-4-(5-cyano-3-indole)butylamine]	166 to 168	0.5	8	
Cc1ccc2c(c1)OCC(NCCCCc1c[nH]c3ccc(C#N)cc13)CO2 (stereo not shown) [EMD 85350, 3-{4-[7-methyl-3,4-dihydro-2H-1,5-benzodioxepin-3-ylamino]butyl}indole-5-carbonitrile]		3	4	
Cc1cccc2c1OCC(NCCCCc1c[nH]c3ccc(C#N)cc13)CO2 (stereo not shown) [EMD 87319, 3-{4-(6-methyl-3,4-dihydro-2H-1,5-benzodioxepin-3-ylamino)butyl}indole-5-carbonitrile]		2	3	
N#Cc1ccc2[nH]cc(CCCCNCC3CCOc4ccccc4O3)c2c1 (stereo not shown) [EMD 87322]		4	0.6	8.4
COc1cccc2c1OCC(NCCCCc1c[nH]c3ccc(C#N)cc13)CO2 (stereo not shown) [EMD 87326, 3-[4-(6-methoxy-3,4-dihydro-2H-1,5-benzodioxepin-3-ylamino)butyl]indole-5-carbonitrile]		0.6	1	
